The record followed here is ChEMBL document CHEMBL1149939, “Potential anxiolytic agents. 2. Improvement of oral efficacy for the pyrido[1,2-a]benzimidazole (PBI) class of GABA-A receptor modulators” (Bioorg Med Chem Lett, 1996).

The target of assay [1] is GABA-A receptor; anion channel. The assay can be described thus: Binding affinity against the BZD site of the Gamma-aminobutyric acid A receptor in rat cerebral cortex using radioligand ([3H]flunitrazepam) assay in the absence of Gamma-aminobutyric acid. Type of assay: tissue-based.
For assay [2], the target named is GABA-A receptor; anion channel. The assay can be described thus: Binding affinity against the BZD site of the Gamma-aminobutyric acid A receptor in rat cerebral cortex using radioligand ([3H]flunitrazepam) assay in the presence of Gamma-aminobutyric acid. Type of assay: tissue-based.
Assay [3] concerns the target T1, GABA-A receptor; anion channel (Rattus norvegicus) (UniProt O09028+P15431+P18506+P18508+P19969+P20236+P23574+P23576+P28471+P28473+P30191+P62813+P63079+P63138+Q91ZM7+Q9ES14). The assay can be described thus: Ratio of IC50 (no GABA) to IC50 (GABA) was measured as GABA Shift (GS). Type of assay: protein-complex assay.
The species entered for assay [4] is Mus sp. Briefly: Test ability to block the tonic-clonic component of seizures induced by metrazole in mice. Type of assay: functional.
Assay [5] is filed under the species Rattus norvegicus. The assay can be described thus: animal or person. As to conditions: read-out: MED.
The species entered for assay [6] is Rattus norvegicus. The assay can be described thus: animal or person. As to conditions: read-out: MED. This is another data set of the same source.
Assay [7] can be described thus: Tested for skeletal muscle relaxant activity using horizontal screen assay. Type of assay: functional.
The species named for assay [8] is Rattus norvegicus. Briefly: Compound was tested for its ability to release (i.e., disinhibit) behavior that had been suppressed by punishment in rats (vogel conflict test). Type of assay: functional. The following applies: read-out: MED.
Assay [9] is filed under the species Rattus norvegicus. The assay can be described thus: The compound was tested for its ability to release (i.e., disinhibit) behavior that had been suppressed by punishment in rats (vogel conflict test). The following applies: read-out: MED. Type of assay: functional.
The species named for assay [10] is Mus musculus. Briefly: Compound was tested for its ability to block the tonic-clonic component of seizures induced by metrazole in mice; Range = 10-30. Type of assay: functional.
Assay [11] concerns the target T1, GABA-A receptor; anion channel (Rattus norvegicus). The assay can be described thus: Relative binding in the presence and absence of GABA, (IC50-GABA /IC50+GABA). Type of assay: protein-complex assay.
A short description of assay [12]: Tested for its interaction with ethanol by its ability to potentiate the effect of ethanol on sleep. As to conditions: read-out: MED. Type of assay: functional.

The structures appear in SMILES notation. Several values for one entry are separate records, joined by “and”; a condition that tells them apart may be missing. Equal entries are not always repeated.

For orientation: IC50 means the concentration needed to halve the response being measured. For `Cc1cc(N(C)C)ccc1NC(=O)C1=C(O)CCn2c1nc1ccccc12`, the values for the IC50 in assay [1] and in assay [2] were 4000 nM and 1500 nM, respectively. The GABA shift in assay [3] was 2.7.
As a reminder, the ED50 is the dose that gives a 50% effect, or the effect in half of the subjects. With `CN1C(=O)CN=C(c2ccccc2)c2cc(Cl)ccc21` [DIAZEPAM], the ED50 in assay [4] was 0.11 mg/kg and 0.3 mg/kg. The minimal effective dose in [5] and in assay [6] was 5 mg/kg in each case.
Take `CN(C)c1ccc(NC(=O)C2=C(O)CCn3c2nc2ccccc23)cc1`: the IC50 in assay [1] turned out to be 270 nM; in assay [2], 210 nM. For the same compound, the ED50 in [7] is >30 mg/kg and 10 mg/kg. The figures for the minimal effective dose in assay [8] and in assay [9] were 10 mg/kg and 3 mg/kg, respectively. In addition, the GABA shift in assay [3] stood at 1.2.
As to `CN(C)c1cccc(NC(=O)C2=C(O)CCn3c2nc2ccccc23)c1`, the IC50 in assay [1] stood at 37 nM; in assay [2], 25 nM. Also, in assay [3], the GABA shift is 1.5.
Turning to `Nc1ccc(NC(=O)C2=C(O)CCn3c2nc2ccccc23)cc1`, the half-inhibitory concentration (IC50) in assay [1] came out at 13000 nM; in [2] it was 3400 nM. In assay [3], the GABA shift is 3.8.
Regarding `O=C(Nc1ccncc1Cl)C1=C(O)CCn2c1nc1ccccc12`, the figures for the IC50 in [1] and in [2] were 220 nM and 100 nM, respectively. Besides, the GABA shift in [3] was 2.2.
Take `Cc1cnccc1NC(=O)C1=C(O)CCn2c1nc1ccccc12`: the values for the IC50 in [1] and in [2] were 7100 nM and 12000 nM, respectively. In assay [4] (Mus sp., read-out: ED50), the ED50 is greater than 10 mg/kg. For the same compound, in [3], the GABA shift was 0.6.
Consider `O=C(NCc1ccncc1)C1=C(O)CCn2c1nc1ccccc12`, for which the figures for the IC50 in assay [1] and in assay [2] were 65 nM and 69 nM, respectively. The ED50 in [4] (Mus sp., read-out: ED50) is greater than 10 mg/kg. In [3], the GABA shift was 0.9.
In the case of `O=C1CCN2C(=C1C(=O)Nc1ccccc1)Nc1ccccc12`, the ED50 was >30 mg/kg and 10 mg/kg in [7]; 5.2 mg/kg in assay [4] (Mus sp., read-out: ED50); 10 mg/kg in assay [10]. Besides, the minimal effective dose in [8] was greater than 10 mg/kg; in assay [9] it was 10 mg/kg. Also, in assay [11], the GABA shift is 1.5.
As to `O=C(Nc1ncccn1)C1=C(O)CCn2c1nc1ccccc12`, the IC50 in assay [1] worked out at 54 nM; in [2], 50 nM. The GABA shift in assay [3] came to 1.1.
In the case of `O=C(Nc1cccnc1)C1=C(O)CCn2c1nc1ccccc12`, the IC50 in [1] is 51 nM; in [2], 48 nM. Besides, the GABA shift in [3] is 1.1.
In the case of `O=C(Nc1ccc(C(=O)O)cc1)C1=C(O)CCn2c1nc1ccccc12`, the 50% inhibitory concentration (IC50) in assay [1] and in [2] was greater than 10000 nM in each case. In addition, in assay [4], the ED50 was >30 mg/kg and 10 mg/kg.
Take `O=C(NCc1cccnc1)C1=C(O)CCn2c1nc1ccccc12`: the half-maximal inhibitory concentration (IC50) in assay [1] came to 150 nM; in assay [2] it was 140 nM. For the same compound, in assay [4] (Mus sp., read-out: ED50), the 50% effective dose (ED50) is greater than 10 mg/kg. Moreover, in [3], the GABA shift stood at 1.1.
With `O=C(Nc1ccccn1)C1=C(O)CCn2c1nc1ccccc12`, the IC50 turned out to be 59 nM in [1] and 36 nM in assay [2]. In addition, the 50% effective dose (ED50) in assay [4] came to 10 mg/kg; in [4] (Mus sp., read-out: ED50) it was 11.2 mg/kg. Further, the GABA shift in assay [3] was found to be 1.7.
With `O=C(Nc1cnccn1)C1=C(O)CCn2c1nc1ccccc12`, the IC50 in assay [1] turned out to be 360 nM; in [2], 400 nM. The ED50 in assay [4] (Mus sp., read-out: ED50) was greater than 10 mg/kg. Besides, in assay [3], the GABA shift was 0.9.
With `Nc1ccccc1NC(=O)C1=C(O)CCn2c1nc1ccccc12`, the concentration for half-maximal inhibition (IC50) in assay [1] was determined as 50 nM; in assay [2], 33 nM. Moreover, the GABA shift in [11] was determined as 1.5.
Consider `O=C(Nc1ccnc(Cl)c1)C1=C(O)CCn2c1nc1ccccc12`, for which the results for the IC50 in assay [1] and in assay [2] were 68 nM and 65 nM, respectively. Further, the ED50 in assay [4] is 3.7 mg/kg and 10 mg/kg. The GABA shift in assay [3] was 1.1.
With `C[n+]1ccc(NC(=O)C2=C(O)CCn3c2nc2ccccc23)cc1`, the values for the IC50 in assay [1] and in [2] were 6300 nM and 3100 nM, respectively. In addition, the ED50 in assay [4] (Mus sp., read-out: ED50) is greater than 10 mg/kg. The GABA shift in assay [3] was found to be 2.
Regarding `O=C(Nc1ccc(O)cc1)C1=C(O)CCn2c1nc1ccccc12`, the concentration for half-maximal inhibition (IC50) worked out at 46 nM in assay [1] and 31 nM in [2]. Also, the ED50 in [4] is >30 mg/kg and 10 mg/kg. Also, the GABA shift in assay [11] was 1.5.
`CN(C)c1ccc(NC(=O)C2=C3N(C)c4ccccc4N3CCC2=O)cc1`: the 50% inhibitory concentration (IC50) in [1] amounted to 29 nM; in [2] it was 16 nM. The GABA shift in [11] is 1.8.
Regarding `O=C(Nc1ccncc1)C1=C(O)CCn2c1nc1ccccc12`, the IC50 in assay [1] worked out at 160 nM; in assay [2], 78 nM. The ED50 was greater than 30 mg/kg in assay [7] (read-out: ED50); 3.1 mg/kg and 7.8 mg/kg in assay [4]. For the same compound, the minimal effective dose is greater than 60 mg/kg in [12], 10 mg/kg in assay [8] and 3 mg/kg in assay [9]. Moreover, the GABA shift in assay [3] worked out at 2.1.
Turning to `O=C(Nc1ccncc1)c1c(O)ccn2c1nc1ccccc12`, the figures for the IC50 in assay [1] and in assay [2] were 260 nM and 150 nM, respectively. Besides, the ED50 in assay [4] (Mus sp., read-out: ED50) is greater than 10 mg/kg. The GABA shift in assay [3] stood at 1.7.
`CCN1C2=C(C(=O)Nc3ccncc3)C(=O)CCN2c2ccccc21`: the 50% inhibitory concentration (IC50) was 80 nM in assay [1] and 27 nM in assay [2]. Also, the minimal effective dose in assay [12] came to 10 mg/kg; in assay [8], 3 mg/kg; in [9], 3 mg/kg. In addition, the GABA shift in assay [3] amounted to 3.
Take `CN(C)c1ccc(NC(=O)C2=C(O)CCn3c2nc2ccccc23)c(F)c1`: the IC50 in assay [1] stood at 120 nM; in assay [2] it was 87 nM. For the same compound, in [3], the GABA shift was found to be 1.4.
As for `CN(C)c1ccccc1NC(=O)C1=C(O)CCn2c1nc1ccccc12`, in assay [1], the IC50 was 10000 nM. For the same compound, the ED50 in assay [4] is 4.9 mg/kg and 10 mg/kg.
Consider `O=C(Nc1ccncc1F)C1=C(O)CCn2c1nc1ccccc12`, for which the 50% inhibitory concentration (IC50) amounted to 53 nM in assay [1] and 20 nM in assay [2]. For the same compound, in assay [3], the GABA shift was 2.6.
With `O=C(Nc1ccncn1)C1=C(O)CCn2c1nc1ccccc12`, the IC50 in assay [1] stood at 480 nM; in assay [2], 370 nM. In addition, the 50% effective dose (ED50) is 10 mg/kg in assay [4] and greater than 10 mg/kg in assay [4] (Mus sp., read-out: ED50). For the same compound, in [3], the GABA shift stood at 1.3.
